Results reported in patent publication US6300327A, “Compositions and methods for potentiation of neurotrophin activity” (The University of Southern California, priority 1997, dated 2001).
“Also recorded” adds a separate entry of the source. Like-named read-outs stand apart in the source and are kept apart here.

Legend:
[1] = system: phospholipase C gamma-1; test: Tyrosine phosphorylation of phospholipase C gamma-1 and other cellular proteins in PC12 cells; type: cell-based
Protocol: To measure the status of trk tyrosine phosphorylation, PC12 cells were lysed and immunoprecipitated with anti-trk serum. The trk proteins were subjected to 7.5% SDS-PAGE and analyzed by immunoblotting with anti-phosphotyrosine antibodies as described in detail in the literature [Kaplan, D. R. et al., "PDGF beta receptor stimulates tyrosine phosphorylation of GAP and association of GAP with a signaling complex," Cell 61:125-133 (1990)]. Tyrosine phosphorylation of cellular proteins was assayed by probing Western blots of lysates of PC12 cells incubated with K-252b and NT-3 or NGF with anti-phosphotyrosine antibodies. Phospholipase C gammal was identified in these blots as described elsewhere [Vetter, M.L. et al., "Nerve growth factor rapidly stimulates tyrosine phosphorylation of phospholipase C-gammal by a kinase activity associated with the product of trk protooncogene," Proc. Natl Acad. Sci. USA 88:5650-5654 (1991)].

[2] = system: neurotrophin activity; test: Neurotrophin potentiation in vitro (overall statements); type: cell-based
[3] = system: midbrain dopaminergic neurons (cultures of ventral mesencephalon); test: Dopamine uptake in primary cultures of fetal rat ventral mesencephalon; type: cell-based; conditions: for activity at 5 µM: Rattus norvegicus, Neuron; for Dopamine uptake, Mean ± SEM: n=4
Protocol: Primary cultures of fetal rat brain septal and mesencephalic cells were prepared in a heretofore known manner [Knusel et al., supra]. Briefly, defined areas were dissected from fetal rat brains (Wistar, E15-16, Charles River, Mass.). The septal area contained the cholinergic neurons from septum, diagonal band of Broca and nucleus basalis. The ventral mesencephalon containing the dopaminergic neurons of the substantia nigra and the ventral tegmental area was dissected and dissociated mechanically. The cells were plated in 16 mm multiwell plates precoated with polyethyleneimine (1 mg/ml, 37° C., overnight), containing 0.5 ml modified L-15 medium supplemented with 5% heat inactivated horse serum and 0.5% heat inactivated fetal calf serum. Modified L-15 was prepared [Knusel et al., "Selective and Nonselective Stimulation of Central Cholinergic and dopaminergic Development in vitro by Nerve Growth Factor, Basic Fibroblast Growth Factor, Epidermal Growth Factor, Insulin and the Insulin-like Growth Factors I and II," J. Neurosci. 10:558-570 (1990)] by adding various amino acids, vitamins, antibiotics, glucose and NaHCO3 to Leibovitz's L-15 medium (Gibco, Grand Island, N.Y.). Plating densities were 4×10^5 cells/cm^2 for basal forebrain cultures and 3×10^5 cells/cm^2 for mesencephalic cultures. Of these cells, 0.5 to 1% were cholinergic or dopaminergic, respectively. Growth factors were typically added on the second day of culture and the cells were grown for 5 or more days. For ChAT assays tissue was homogenized in 250 μl of 50 mM Tris-HCl buffer, pH 6.0 with 0.3% Triton X-100. [1-^14 C]acetylcoenzyme A (NEN) concentration was 20 μM and specific activity 4.09 Ci/mol. To measure dopamine uptake, cultures were preincubated for 5 min at 37° C. with 250 μl incubation solution (5 mM glucose, 1 mM ascorbic acid in PBS) containing 1 mM pargyline. [^3 H]dopamine (37 Ci/mmol) was then added to give a final concentration of 50 nM and the cultures were incubated for another 15 minutes. Blanks were obtained by incubating cells at 0° C.
In Table 1, dopamine uptake is given as fmol/min/culture dish. Cultures were grown in 24-well plates for 7 days in L-15 medium with 5% horse and 0.5% fetal bovine serum and treated with growth factors and K-252b from the second day of culture. rhBDNF, 200 ng/ml; des-IGF-1, 1 μg/ml; n=4; *different from respective control group, p <0.01 (Student's t-test). The apparent difference between control cultures grown in presence and absence of K-252b was statistically not significant. The experiment shown is a representative case of a total of 5 independent experiments.

[4] = system: epidermal growth factor and basic fibroblast growth factor receptors; test: Receptor tyrosine phosphorylation induced by epidermal growth factor and basic fibroblast growth factor in PC12 cells; type: cell-based; conditions: K-252b
[5] = system: PC12 cells; test: Neurite outgrowth of PC12 cells; type: cell-based; conditions: 48 hours
Protocol: PC12 cells were grown as described earlier [Kaplan et al., 1990, 1991a, b]. To assess effects on neurite outgrowth, cells were incubated for 48 hours with K-252b (50 nM) and NT-3 or NGF (50 ng/ml). Neurites were scored if they were a length of one cell body or more.
Experiments on PC12 cells confirmed observations made on primary neuron cultures. Treatment with K-252b stimulated NT-3 induced neurite outgrowth and trk tyrosine phosphorylation in PC12 cells while inhibiting NGF induced effects. PC12 cells were incubated for 48 hours with K-252b (50 nM) and NT-3 or NGF (50 ng/ml). FIG. 4A illustrates the % cells with neurites after 48 hours incubation. Neurites were scored if they were a length of one cell body or more. PC12 cells were subsequently lysed and immunoprecipitated with anti-trk serum. trk proteins were subjected to SDS-PAGE and analyzed by immunoblotting with anti-phosphotyrosine antibodies (FIG. 4B). Lane 1, NT-3 +K-252b; lane 2, NT-3; lane 3, NGF +K-252b; lane 4, NGF. For FIG. 4C, PC12 cells were incubated for 1 hour in K-252b (50 nM or 10 μM) and with NT-3 or NGF for 5 minutes prior to lysis; other methods were the same as described for FIG. 4B. Lane 1, NT-3+10 μM K-252b; lane 2, NT-3±50 nM K-252b; lane 3, NT-3; lane 4, NGF+10 μM K-252b; lane 5, NGF+50 nM K-252b; lane 6, NGF; lane 7, untreated control.

[6] = system: trk; test: Cell-free tyrosine phosphorylation of recombinant human trk expressed in Sf9 insect cells; type: biochemical; conditions: 10 μM K-252b
Protocol: Human trk and trkB were expressed in Sf9 insect cells transfected using a baculovirus system. The trk proteins were immunoprecipitated as described above and the precipitates were incubated with 20 μCi [gamma-^32 P]ATP, 10 mM MnCl2, 20 mM Tris, pH 7.4, for 5 min at 25° C. in the presence of increasing amounts of K-252b or control solution. Phosphorylated proteins were analyzed as described for FIG. 4B. The tyrosine kinase activity of the trk and trkB proteins was activated in the absence of ligand, a common observation for receptor tyrosine kinase produced in the baculovirus system. The trk and trkB proteins were 25% pure as assayed by SDS-PAGE.
K-252b interacts directly with the trk and trkB protein. Human trk and trkB were expressed in Sf9 insect cells transfected using a baculovirus system. trk proteins were immunoprecipitated and the precipitates were incubated with [gamma^32 P]ATP in the presence of increasing amounts of K-252b or control solution.

## CC12OC(CC1(O)C(=O)O)n1c3ccccc3c3c4c(c5c6ccccc6n2c5c31)CNC4=O (centres unmarked) [K-252b]
[1]; 50 nM K-252b + NT-3
  NT-3 mediated tyrosine phosphorylation of phospholipase C gamma-1 and other proteins: enhanced
[1]; K-252b + NGF
  tyrosine phosphorylation of phospholipase C gamma-1 and other proteins in NGF treated cells: inhibited
[2]; nM concentrations
  effect on actions of NT-3: selectively potentiates
[2]; μM concentrations
  effect on actions of all neurotrophins: inhibits the actions of all neurotrophins
[3]; K-252b 5 μM (Table 1)
  effect on increase in dopamine uptake mediated by BDNF: prevented the increase in dopamine uptake; also recorded: inhibits the stimulatory action
[3]; read-out: Dopamine uptake, % of Control, With K-252b (5 μM) + des-IGF-1 1 μg/ml
  activity at 5 µM: 201%
[3]; read-out: Dopamine uptake, % of Control, With K-252b (5 μM) + rhBDNF 200 ng/ml
  activity at 5 µM: 119%
[3]; With K-252b (5 μM) + des-IGF-1 1 μg/ml
  Dopamine uptake, Mean ± SEM: 22.9 ± 1.0 fmol/min/culture dish
[3]; With K-252b (5 μM) + rhBDNF 200 ng/ml
  Dopamine uptake, Mean ± SEM: 13.6 ± 0.7 fmol/min/culture dish
[3]; With K-252b (5 μM), no growth factor (Control)
  Dopamine uptake, Mean ± SEM: 11.4 ± 0.2 fmol/min/culture dish
[3]; bFGF and insulin
  effect on stimulatory action of bFGF and insulin on dopamine uptake: does not inhibit
[3]; des-IGF-1 1 μg/ml
  effect on stimulatory action of des-IGF-1 on dopamine uptake: not to inhibit
[3]; low concentrations of K-252b
  effect on action of BDNF on dopaminergic neurons: did not potentiate
[4]
  effect on receptor responses induced by epidermal growth factor and basic fibroblast growth factor: failed to influence
[5]; 50 nM K-252b + NGF 50 ng/ml
  reduction of NGF-induced neurite outgrowth: approximately three-fold
[5]; 50 nM K-252b + NT-3 50 ng/ml, vs NT-3 alone
  effect on NT-3 induced neurite outgrowth: significantly more neurite outgrowth activity
[6]
  effect on trk tyrosine phosphorylation, cell-free system: completely prevented
